The numbers were not newly measured in patent US9050351B2, “Topical compositions designed to maintain or restore the integrity of the mucous membranes” (RICEFARMA S.R.L., priority 2010, dated 2015), which cites them from elsewhere.

For data set [1] the following is noted: as disclosed in WO93/19730.

As for `C[N+](C)(C)CCOP(=O)([O-])OC[C@H](O)CO` [choline alfoscerate, L-alpha-glycerylphosphorylcholine], the “solubility in water and ethanol” value is reported as “highly soluble”. Also, in data set [1], the “incidence of skin irritation, eye irritation and skin sensitisation” value was “low”; the systemic toxicity entry is reported as “practically devoid”; the topical tolerability result is on record as “marked”.
